For this assay, the target named is T1, WT hA3ARs (Homo sapiens, UniProt P0DMS8).
T1 construct: The full-length mouse (as previously described^25), human (purchased from the cDNA Resource Center), and human/mouse chimeric
T1 sequence (P0DMS8 1-318): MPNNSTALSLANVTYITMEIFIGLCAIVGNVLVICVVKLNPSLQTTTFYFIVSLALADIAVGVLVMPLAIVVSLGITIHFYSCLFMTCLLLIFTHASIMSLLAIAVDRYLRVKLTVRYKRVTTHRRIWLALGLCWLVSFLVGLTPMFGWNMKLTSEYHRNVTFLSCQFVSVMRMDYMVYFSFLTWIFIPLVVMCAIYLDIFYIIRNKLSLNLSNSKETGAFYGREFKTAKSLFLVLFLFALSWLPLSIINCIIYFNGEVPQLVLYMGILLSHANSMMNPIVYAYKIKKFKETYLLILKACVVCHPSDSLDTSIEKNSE
Put plainly: [35S]GTPγS binding assay, Cl-IB-MECA concentration-response with modulator, HEK293 cell membranes. Type of assay: biochemical. The settings on record: for Emax (%): PAM derivative 1.0 μM, [35S]GTPγS binding induced by Cl-IB-MECA, WT hA3ARs, mean ± SEM, n = 3; for Emax (%) / IC50 ratio: Table 3; for IC50 ratio: ratio of IC50 values for Cl-IB-MECA, DMSO control compared to 100 nM PAM derivative. The text has this:
Creation of stable HEK293 cell lines expressing wild-type and human/mouse chimeric A3ARs: The full-length mouse (as previously described^25), human (purchased from the cDNA Resource Center), and human/mouse chimeric (custom synthesized by TOP Gene Technologies, St. Laurent, Quebec) A3AR cDNAs were subcloned into pcDNA3.1. The constructs were transfected into HEK293 cells (American Type Culture Collection, Manassas, VA) using Lipofectamine 2000 reagent (Invitrogen, Waltham, MA) and selected with 2 mg/ml of G418 in cell culture media (DMEM with 10% fetal bovine serum, 100 units/ml penicillin, and 100 μg/ml streptomycin). Cell lines derived from individual clones were maintained in cell culture media containing 0.6 mg/ml G418.
Membrane preparations: Transfected HEK293 cells were washed with PBS followed by homogenization in Buffer A containing 10 mM Na+-HEPES, 10 mM EDTA, 1 mM benzamidine (pH 7.4) and centrifugation at 27,000×g for 30 min at 4° C. Cell pellets were subsequently re-homogenized in HE buffer containing 10 mM Na+-HEPES, 1 mM EDTA, 1 mM benzamidine (pH 7.4) and re-centrifuged. The supernatant was discarded, and cell pellets were resuspended in HE buffer containing 10% sucrose and stored at −20° C.
[^35S]GTPγS binding assays: Cell membranes (5 μg protein) isolated from transfected HEK293 cells were pre-treated with modulators for one hour in 100 μl GTPγS binding buffer (50 mM Tris HCL [pH 7.4], 1 mM EGTA, 10 mM MgCl2, 100 mM NaCl, 0.004% CHAPS, and 0.5% BSA) in a 96-well large-volume polypropylene assay plate. In all assays, ZM-241385 (300 nM) and PSB-603 (300 nM) were included to block A2BARs expressed endogenously in HEK293 cells. Adenosine deaminase (ADA) (1 μl/ml) was also included to degrade any endogenous adenosine that might be produced during the assay, except when adenosine was used as the orthosteric agonist. The reactions were initiated by the addition of ~0.2 nM [^35S]GTPγS and agonist in 100 μl GTPγS binding buffer and allowed to incubate for two hours at room temperature. At the end of the two-hour incubation period, the membranes were harvested by rapid filtration through Whatman GF/B filters that had been pre-soaked for two hours in GTPγS binding buffer containing 0.02% CHAPS using a 96-well cell harvester (Brandel, Gaithersburg, MD). Radioactivity trapped in the filters was measured by liquid scintillation counting. Non-specific binding of [^35S]GTPγS was determined in the presence of 10 μM unlabeled GTPγS.
Data Analysis: EMax and EC50 values were calculated from data obtained from agonist concentration-response curves according to: E=([…])/(EC50+x), in which x is the agonist concentration. All values were statistically compared using a two-tailed unpaired Student's t-test or two-tailed paired Student's t-test, as indicated. For dissociation binding assays, fit to a one-phase exponential decay model: Y=(Y0−NS)^(−kxt), in which Y0 is specific binding at time 0, k is the dissociation rate constant, and t is the elapsed time. All values are presented as the mean±SEM. A p value <0.05 was considered statistically significant.
The two series of modulators were evaluated in a [^35S]GTPγS binding assay using isolated HEK293 cell membranes expressing the h A3AR, which detects receptor-induced G protein activation. For these studies, concentration-response curves with the orthosteric agonist Cl-IB-MECA were assessed in the presence of vehicle or 0.1, 1, or 10 μM modulator compound.

[1] abbreviates: increasing concentrations of modulator (0.1, 1, 10 μM).

Molecules are shown by their SMILES.

On to `Clc1ccc(Sc2nc3ccccc3c3[nH]c(C4CCCCC4)nc23)cc1Cl` [47 (RK007-2-1, BS1005)], for which the “Emax (%)” value came out at 137.6 ± 7.3% and the IC50 ratio is 1.11.
On the same counts, the results for `Cn1c(C2CCCCC2)nc2c(Nc3ccc(Cl)c(Cl)c3)nc3ccccc3c21` [35 (MRS8206)] are 177.8 ± 11.5% and 1.12.
The corresponding values for `CN(c1ccc(Cl)c(Cl)c1)c1nc2ccccc2c2[nH]c(C3CCCCC3)nc12` [45 (RK006-100-1, BS1007)] are 127.0 ± 6.0% and 0.491.
The corresponding values for `Clc1ccc(Oc2nc3ccccc3c3[nH]c(C4CCCCC4)nc23)cc1Cl` [46 (RK007-4-1, BS1006)] are 150.6 ± 5.8% and 0.738.
Consider `O=C(Nc1cc(Nc2ccc(Cl)c(Cl)c2)nc2ccccc12)C1CCCCC1` [LUF6096, reference compound], for which, under setting [1], the “effect on EC50 (potency) of agonist Cl-IB-MECA, in words” value was “without reducing the potency of CI-IB-MECA” and the “effect on Emax (efficacy) of agonist Cl-IB-MECA, in words” value is recorded as “produced the greatest increase in efficacy”.
Consider `Clc1ccc(Nc2nc3ccccc3c3oc(C4CCCCC4)nc23)cc1Cl` [41 (RK005-84-1, BS1002)], for which the “Emax (%)” value was 149.9 ± 8.8% and the IC50 ratio came to 0.406.
On the same counts, the results for `Clc1ccc(Nc2nc3ccccc3c3sc(C4CCCCC4)nc23)cc1Cl` [42 (RK005-79-1, BS1001)] are 192.6 ± 11.2% and 0.505.
As for `OCCn1c(C2CCCCC2)nc2c(Nc3ccc(Cl)c(Cl)c3)nc3ccccc3c21` [36 (MRS8236)], the “Emax (%)” value worked out at 119.3 ± 6.2% and the IC50 ratio came to 0.764.

Values taken from US20260274835A1, “A3 ADENOSINE RECEPTOR POSITIVE ALLOSTERIC MODULATORS” (The Medical College of Wisconsin, Inc., priority 2022, published 2026).
